In US9409881B2, “Herbicidally active 6′-phenyl-2,2′-bipyridine-3-carboxylic acid derivatives” (BAYER CROPSCIENCE AG, priority 2012, dated 2016):

SMILES	melting point
O=C(O)c1cccnc1-c1cccc(-c2ccc(Cl)cc2)n1 [Chemical Example 3, 6′-(4-Chlorophenyl)-2,2′-bipyridine-3-carboxylic acid]	221 °C
COC(=O)c1cccnc1-c1cccc(-c2ccc(Cl)cc2)n1 [Chemical Example 2, Methyl 6′-(4-chlorophenyl)-2,2′-bipyridine-3-carboxylate]	120.5 °C
